Experimental data taken from patent publication US8487113B2, “Method for the preparation of tizanidine hydrochloride” (Farmak, A.S., priority 2008, dated 2013).
Structures can show the parent of a compound that is named as a salt.

Legend:
[1] = per 1 g of substance, crystallization as in U.S. Pat. No. 3,843,668
[2] = per 1 g of substance, crystallization as in EP 644 192

| SMILES | volume of methanol needed for dissolution of 1 g [1] | volume of ethanol needed for dissolution of 1 g [2] |
| --- | --- | --- |
| Clc1ccc2nsnc2c1NC1=NCCN1 [tizanidine base, 5-chloro-4-(2-imidazolin-2-yl-amino)-2,1,3-benzothiadiazole] | at least 37 ml |  |
| Clc1ccc2nsnc2c1NC1=NCCN1 [tizanidine hydrochloride] |  | at least 43 ml |
